# “And” between values parts separate entries of the source, which are not always exact repeats. Identical values can stand only once. “Also recorded” adds a separate entry of the source. Like-named read-outs stand apart in the source and are kept apart here. Marks after values point to notes of the source that are not given here.
# Experiments:
# [1] = system: CFA mono-arthritic knee joints in Sprague-Dawley rats; assay: Knee joint circumference in CFA-induced monoarthritis; format: in vivo, rat; settings: Post-CBD, four consecutive days (day 4), mean ± SD
# [2] = system: CFA mono-arthritic knee joints in Sprague-Dawley rats; assay: Knee joint temperature in CFA-induced monoarthritis; format: in vivo, rat; settings: for Knee joint temperature: Post-CBD, four consecutive days (day 4), mean ± SD
# [3] = system: rats with CFA induced mono-arthritis; assay: Secondary thermal hyperalgesia, paw withdrawal latency (PWL) test, CFA rats; format: in vivo, rat
# normal rats = assay: Paw withdrawal latency (PWL) test, normal rats; format: in vivo, rat; settings: any CBD dose (0.6, 3.1, 6.2 mg/d)
# Procedure: Secondary thermal hyperalgesia was assessed with the paw withdrawal latency (PWL) test (Hargreaves et al. (1988) Pain 32: 77-88). PWLs were measured in response to a radiant heat source shone on one hind paw of the animals from beneath a glass top table. A shortened PWL response in animals with knee joint inflammation was indicative of secondary thermal hyperalgesia. Animals were placed in separate plastic cubicles (4×4×10 in) on a glass top table (2 mm thickness of glass) and allowed to adapt to their new environment for 20-30 min before testing. A small movable metal box that focused a high-intensity light beam through an aperture (0.5 cm×0.5 cm) was attached to an on/off switch and a digital timer. […] At that time, the light is switched off and the number of seconds on the digital timer recorded as the PWL (sec). […] A mean of the 5 trials was calculated for each animal. […]
# (§1) Baseline parameters (body weight, knee joint temperature, and knee joint circumference) were obtained before the knee injection of rats with CFA. […] Exploratory activity was monitored prior to initial gel application and on the third day post gel application (after 6 h). […] Blood samples were obtained for CBD plasma quantification, and tissues (knee joints, dorsal root ganglia, spinal cord, brain) were collected after perfusion. […]
# normal (non-CFA) rats = assay: Open field exploratory behavioral activity; format: in vivo, rat; settings: 0.6 to 62.3 mg/d, pre-dose versus post-dose and among dose groups
# Procedure: Exploratory behavioral activity of the rats was monitored using the Flexfield Animal Activity System (San Diego Instruments; San Diego, Calif.) with a Photobeam Activity System software coupled to a computer according to previously published methods by Zhang et al., (2004) Pharmacol Biochem Behav 77: 145-153. Briefly, six main parameters were recorded: rearing events and rearing time, active time and resting time, total activity (i.e. number of photobeams disturbed in the x-y-z planes while the rat was moving around in the box or involved in stationary movement such as grooming), and distance traveled. Activity testing was conducted in an isolated, temperature controlled area at similar times daily in order to provide consistent results.
# as §1, with “CFA. PWL test and exploratory activity testing were also conducted prior to CFA injection. Rats were anesthetized with a short term anesthetic and the left knee joint cavity was injected with CFA for induction of mono-arthritis.” for “CFA.”
# [4] = Plasma CBD concentration after topical gel application (LC/MS); format: in vivo, rat; settings: plasma concentration versus dose, 0.6, 3.1 and 6.2 mg/d
# Procedure: Baseline parameters (body weight, knee joint temperature, and knee joint circumference) were obtained before the knee injection of rats with CFA. PWL test and exploratory activity testing were also conducted prior to CFA injection. Rats were anesthetized with a short term anesthetic and the left knee joint cavity was injected with CFA for induction of mono-arthritis. On day 3, the back of each animal was shaved. […] Rats received daily treatments for four consecutive days of either vehicle gel, or CBD gel. Gel was applied to the skin in a templated region on the dorsal surface of the rat and rubbed into the skin for 30 sec to ensure complete coverage. The nitrile template was used to ensure specific area reproducibility. […] Exploratory activity was monitored prior to initial gel application and on the third day post gel application (after 6 h). […] Blood samples were obtained for CBD plasma quantification, and tissues (knee joints, dorsal root ganglia, spinal cord, brain) were collected after perfusion. […]
# The LC/MS system used to analyze samples was comprised of a Waters Alliance 2695 pump and autosampler, a Micromass™ ZQ detector, and 996 photodiode array detector with MassLynx™ software (Waters Corp., Milford, Mass.). […] The ZQ detector was used with an electrospray ionization (ESI) probe set for single ion monitoring (SIM) for cannabidiol quantification. […]
# [5] = cited from earlier work
# [6] = hairless guinea pigs, 1% hydroalcoholic CBD gel, up to 8 h post application; cited from earlier work
# CB2 = CB2 (Homo sapiens, UniProt P34972); settings: cited from earlier work
# CB2, sequence (P34972 whole entry, species assumed): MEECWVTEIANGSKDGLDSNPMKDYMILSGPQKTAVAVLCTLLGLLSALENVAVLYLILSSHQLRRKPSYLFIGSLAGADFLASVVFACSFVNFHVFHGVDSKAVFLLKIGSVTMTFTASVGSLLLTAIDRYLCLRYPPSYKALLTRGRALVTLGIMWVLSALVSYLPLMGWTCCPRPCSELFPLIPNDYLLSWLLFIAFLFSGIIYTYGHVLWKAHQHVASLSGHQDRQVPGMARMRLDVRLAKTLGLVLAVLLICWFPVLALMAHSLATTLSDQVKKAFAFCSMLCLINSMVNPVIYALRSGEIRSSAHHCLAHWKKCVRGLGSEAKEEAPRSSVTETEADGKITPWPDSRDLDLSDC
smiles,measurement,setting,value
"C=C(C)C1CCC(C)=CC1c1c(O)cc(CCCCC)cc1O (stereo not drawn) [CBD, 2-[3-methyl-6-(1-methylethenyl)-2-cyclohexen-1-yl]-5-pentyl-1,3-benzenedi-ol]",Knee joint circumference,[1]; 0.6 mg/d CBD gel on skin,7.0 ± 0.3^b cm
same,Knee joint circumference,[1]; 3.1 mg/d CBD gel on skin,7.1 ± 0.3^b cm
same,Knee joint circumference,[1]; 6.2 mg/d CBD gel on skin,6.6±0.2 cm and 6.6 ± 0.2^b* cm
same,Knee joint circumference,[1]; 62.3 mg/d CBD gel on skin,6.6±0.1 cm and 6.6 ± 0.1^a* cm
same,Differences in knee joint temperature among the treatment groups,"[2]; 0.6 to 62.3 mg/d CBD versus vehicle gel, p>0.05",no significant differences
same,Knee joint temperature,[2]; 0.6 mg/d,31.2 ± 0.7^b ° C.
same,Knee joint temperature,[2]; 3.1 mg/d,30.6 ± 0.6^b ° C.
same,Knee joint temperature,[2]; 6.2 mg/d,31.7 ± 2.1^b ° C.
same,Knee joint temperature,[2]; 62.3 mg/d,30.2 ± 0.9^a ° C.
same,"PWL scores, improvement","[3]; 0.6 mg/d and 3.1 mg/d, day 4",did not have improved PWL scores
same,"PWL, improvement compared to CFA rats receiving vehicle gel","[3]; 6.2 mg/d, 4 h (d 1) post CBD dosing, p<0.05",improvement
same,Effect on PWL in normal animals,normal rats,no effect; also recorded: not affected
same,"Exploratory activities, six parameters (rearing events, rearing time, total beams broken, distance traveled, active time, resting time), differences",normal (non-CFA) rats,No significant (p>0.05) differences; also recorded: no differences in activity measurements
same,"Linear pharmacokinetic correlation, slope",[4],1.0
same,Cmax plasma concentration,"[5]; hairless guinea pigs dosed once with 6.2 mg/d CBD gel, n=3",45.8 ± 8.4 ng/mL
same,Cmax plasma concentration,"[5]; hairless guinea pigs, 6.2 mg/d CBD gel, after 3 consecutive days of gel application, n=5",85.6 ± 48.4 ng/mL
same,Time out to which CBD plasma concentrations were detected,"[5]; hairless guinea pigs, after a single initial gel application",120 h
same,Tmax,"[5]; hairless guinea pigs, multiple applications",40.0 ± 14.5 h
same,Tmax,"[5]; hairless guinea pigs, single application",6.7 ± 2.1 h
same,Residual drug remaining on the skin surface,[6],approximately 15%
same,Binding affinity for CB2,CB2,little binding affinity

# From patent publication US20120202891A1, “Cannabinoid-Containing Compositions and Methods for Their Use” (UNIVERSITY OF KENTUCKY RESEARCH FOUNDATION, priority 2009, published 2012)
